# Source: patent publication US20050013869A1, “Sustained release formulation for carbamates and a method therefor” (priority 2003, published 2005)
# Columns and labels:
# [1] = In vivo pharmacokinetic study after oral (intragastric) administration in rats; settings: rat, oral solution, 1 mg/kg
# Protocol: Naked physostigmine solution (1 mg/kg) or physostigmine-loaded RG 502 microparticles suspension (10% drug loading) were fed intragastrically into the overnight-fasted rats (weight-280g) via a rigid dosing gavage needle into the posterior of the rat pharynx, directly into the stomach. Immediately before administration of the tablets and solutions, a 300 μL sample of blood was taken at what was t=0 hrs (pre-dose), through the exposed catheter. Subsequent samples were drawn from the catheter at intervals over a period of 48 hours after drug administration. After each withdrawal, an equal volume of 0.9% normal saline was injected back into the blood stream to minimize loss of body fluid. Water and food were available ad libitum in the metabolic cages. Each 300 μl volume of blood was collected in heparinised microcentrifuge tubes and centrifuged under 3000 g for 5 minutes at 4° C. to obtain the plasma. All plasma samples were stored at −70° C. in fresh heparinised microcentrifuge tubes. Physostigmine is extracted immediately from it prior to analysis by high performance liquid chromatography (HPLC) described by Zhao et al (2003) Journal of Chromatography B 784- 323-329). The WinNonlin® Version 3.2 (Pharsight Corporation, USA) was used to calculate the pharmacokinetic parameters based on the non-compartment model.
# [2] = in vitro medium, 37° C., cited from earlier work
# [3] = K. Walter et al. (1995); cited from earlier work
structure (smiles),measurement,setting,value
"CNC(=O)Oc1ccc2c(c1)[C@]1(C)CCN(C)[C@@H]1N2C [physostigmine, Physostigmine]",Tmax,[1]; plasma,40.8 min
same,AUC,"[1]; plasma, read-out: AUC (hr*μg/mL), Mean",0.77 µg·h/mL
same,Cmax,"[1]; plasma, read-out: Cmax (μg/mL), Mean",0.57 µg/mL
same,half-life,"[1]; plasma, read-out: Half life (hr), Mean (converted)",1.16 h
same,"Cl (mL/hr/kg), Mean",[1],998.86 mL/h/kg
same,"Vd (mL/kg), Mean",[1],1584.37 mL/kg
same,physostigmine degraded,[2]; in 6 days,about 40%
same,physostigmine degradation rate,[2],7 % per day
same,elimination half-life,[3],12 to 40 min
